Reference: patent US11001591B2, “TRAF 6 inhibitors” (HELMHOLTZ ZENTRUM MUENCHEN—DEUTSCHES FORSCHUNGSZENTRUM FÜR …, priority 2016, dated 2021)

Legend:
[1] = biological target: interaction of Ubc13 with Uev1a (Homo sapiens, UniProt P61088+Q13404); assay: Ubc13-Uev1a interaction; format: binding
MDM2 = biological target: T1, MDM2 (Homo sapiens, UniProt Q00987); assay: In vitro ubiquitination assay, MDM2; format: biochemical; details: K48 chain formation
T1 construct: purchased Boston Biochem one of K-102, K-260, K-200B, K-220, K-240, K-270
T1 sequence (Q00987 whole entry): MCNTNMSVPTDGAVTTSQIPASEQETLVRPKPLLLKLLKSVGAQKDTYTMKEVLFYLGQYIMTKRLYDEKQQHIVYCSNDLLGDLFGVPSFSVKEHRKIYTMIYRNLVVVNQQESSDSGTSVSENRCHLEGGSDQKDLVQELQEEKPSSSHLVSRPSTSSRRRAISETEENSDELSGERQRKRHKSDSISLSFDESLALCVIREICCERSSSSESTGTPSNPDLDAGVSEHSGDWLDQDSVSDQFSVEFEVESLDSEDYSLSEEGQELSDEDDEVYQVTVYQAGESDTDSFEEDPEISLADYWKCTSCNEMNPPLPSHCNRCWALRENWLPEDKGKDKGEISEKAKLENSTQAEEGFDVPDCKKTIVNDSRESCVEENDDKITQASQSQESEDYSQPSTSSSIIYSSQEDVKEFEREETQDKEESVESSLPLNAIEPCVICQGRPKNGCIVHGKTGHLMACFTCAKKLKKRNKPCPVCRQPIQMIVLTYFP
Method: For analysis of clAP1, MDM2, TRIM63, RNF4, ITCH and E6AP mediated poly-ubiquitination, the respective ubiquitin ligase kit from Boston Biochem (K-102, K-260, K-200B, K-220, K-240 and K-270) was used. Here, reaction buffer, E1, E2 and E3 enzyme (and p53 substrate in case of MDM2) were mixed and pre-incubated with compound or DMSO for 5 minutes at room temperature before adding Mg^2+-ATP and mono-ubiquitin for reaction start. Ubiquitination was visualized by Western Blot analyses.

[2] = system: 24 different Ubiquitin reaction cascades; assay: Ubiquitin Profiler (Eurofins); format: biochemical; details: 30 μM compound
Method: C25-140 was sent to Eurofins Pharma Discovery Services UK to perform a Single Point Ubiquitin Profiler testing of C25-140 effect at a concentration of 30 μM on 24 different Ubiquitin reaction cascades employing distinct combinations of E2, E3 and substrate. Each reaction was measured in duplicates. Cascade activity is expressed as a percentage of the mean cascade activity in the positive control samples. The positive control value is considered to be 100%, and all test samples are referred to this value.

[3] = system: TRAF6 auto-ubiquitination; assay: TRAF6 auto-ubiquitination in Jurkat T-cells; format: cell-based, human; details: PMA/Ionomycin
[4] = system: Diet-Induced-Obesity (DIO) mice; assay: Diet-Induced-Obesity (DIO) mouse study; format: in vivo; details: 7.4 mg/kg IP once daily
Method: For MEF cells, 1.2×10^5 cells per sample were seeded, treated with compound for 6 hours and stimulated with either IL-1β or TNFα for 60 minutes. Jurkat T-cells and primary mouse CD4^+ T-cells were seeded at 2×10^5 cells per sample, also treated with compound for 6 hours and stimulated with PMA/lonomycin for 3 hours. RNA was isolated according to the manufacturer's protocol of the Qiagen RNeasy Kit (MEF cells) or the STRATEC INVITRAP® SPIN UNIVERSAL RNA MINI KIT (Jurkat T-cells). The isolation of mRNA from […] white adipose tissue from DIO mice was performed using TRIzol® Reagent according to manufacturer's instruction. To clear the isolated RNA from genomic DNA, samples (up to 5 μg RNA) were treated with RQ1 RNase-Free DNaseI (Promega) as described in the technical manual. For the reverse transcription of RNA into cDNA, the DNaseI digested RNA samples were processed using the SuperScript III First Strand cDNA Synthesis System (Invitrogen/ThermoFisher Scientific) following the manufacturer's protocol. Thereby, random hexamers provided with the kit were used for reverse transcription. cDNA samples were stored at −20° C. For quantification of cDNA in the samples, the LightCylcer480 (Roche) and the KAPA SYBR FAST qPCR Kit were used. For relative quantification, the ΔΔCp method first described by Pfaffl (Pfaffl, M. W., A new mathematical model for relative quantification in real-time RT-PCR. Nucleic Acids Res, 2001. 29(9): p. e45) was applied. The following primer were used for qRT-PCR:
Mice were fed a high-fat-diet until they reached a body weight of at least 40 g and developed […]. These mice were separated in control group and a group for C25-140 (compound 3) injection. Mice were treated every day with 14 μmol/kg (=7.4 mg/kg) C25-140 intraperitoneally for a period of 20 days. Thereby, C25-140 was dissolved in 2.9% DMSO, 1.5% Tween-80 and 1×PBS. Every day before injection, the body weight and food intake were measured. […]

BJAB (GCB DLBCL) = assay: Cell viability in DLBCL, BJAB; format: cell-based; details: 30 μM added at day 0, 4 and 8; 9 days
Method: To determine the effects of C25-140 on MYD88-dependent ABC-DLBCL, we chose the HBL1 (ABC-DLBCL-MYD88 L265P), U2932 (ABC DLBCL-MYD88 wt) and BJAB (GCB DLBCL) cell lines. 1×10^6 cells of each cell line was seeded in 5 ml and treated with 30 μM compound C25-140 (compound 3) or DMSO. The entire experiment was carried out for 9 days. Every day 500 μl were taken and viable cell number was acquired using the ViCEII cell counter (Beckmann Coulter). At days 4 and 8 of the experiment the volume was again adjusted to 5 ml and samples were supplemented with 30 μM compound C25-140 or DMSO. This process was necessary to ensure linear proliferation of DMSO treated cells. All curves of C25-140 treated samples were referred to the corresponding DMSO treated controls.

U2OS cells = assay: Cell growth of osteosarcoma cell line U2OS; format: cell-based
Method: For analysis of the cell growth of the osteosarcoma cell line U20S, 5×10^3 cells were seeded in 96 well plates. 18 hours later, cells were treated with C25-140 (compound 3) or DMSO for 6 hours. Using a ^137caesium source (HWM-D2000), selected samples were irradiated with a dose of either 2 Gy or 4 Gy. Cell growth was measured every 24 hours for a period of 7 days by counting Hoechst33342 positive cells in an Operetta High-Content Imaging System (PerkinElmer) and the Harmony/Columbus analysis software (PerkinElmer).

[5] = system: 78 oncological cell lines and control cell lines HS-5 and MCF 10A; assay: Omniscreen cancer cell line panel, CellTiter-Glo; format: cell-based; details: nine concentrations, top 80 μM, 72 hours
Method: The effect of C25-140 on cell viability of 80 cancer cell lines using the CellTiter-Glo luminescent cell viability assay was conducted at CrownBioscience Inc. at the testing facility in Beijing. Here, 80 selected cell lines were cultured in media supplemented with 10-15% FBS, in the temperature of 37° C., 5% CO2 and 95% humidity. Culture medium was purchased from GIBCO or Sigma, USA. The cells were treated with C25-140 in 9 dose levels starting at 80 μM with 3.16-fold serial dilutions. Cisplatin served as a reference control and started with a top working concentration of 100 μM. Test samples were incubated for 72 hours and cell viability was measured by the CellTiter-Glo assay.

Sequence of interaction of Ubc13 with Uev1a (P61088 whole entry): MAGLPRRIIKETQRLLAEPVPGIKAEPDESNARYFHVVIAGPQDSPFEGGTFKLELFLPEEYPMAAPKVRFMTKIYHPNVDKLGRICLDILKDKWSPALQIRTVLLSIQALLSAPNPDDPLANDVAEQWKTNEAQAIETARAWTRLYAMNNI
Sequence of interaction of Ubc13 with Uev1a (Q13404 whole entry): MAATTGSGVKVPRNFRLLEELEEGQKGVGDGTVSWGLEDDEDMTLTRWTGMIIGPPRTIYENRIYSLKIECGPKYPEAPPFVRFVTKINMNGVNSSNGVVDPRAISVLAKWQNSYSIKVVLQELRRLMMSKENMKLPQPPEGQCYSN

binding of Ubc13 to Uev1a [1]: did not affect
p53 ubiquitination by MDM2 (MDM2): not affected
food intake ([4]; 20 days, vs vehicle): did not differ
SMILES: Cc1nn(-c2ccc3nnc(C)n3n2)c(C)c1CCC(=O)N1CCC(Cc2ccccc2)CC1 [Compound 3, 1-(4-benzylpiperidin-1-yl)-3-(3,5-dimethyl-1-(3-methyl-[1,2,4]triazolo[4,3-b]pyridazin-6-yl)-1H-pyrazol-4-yl)propan-1-one]
inhibition of ubiquitination cascades, Ubiquitin Profiler panel [2]: None of the reactions is considerably inhibited
TRAF6 auto-ubiquitination upon TCR stimulation [3]: dose-dependently reduced
body weight gain under high-fat-diet ([4]; 20 days): hardly increased body weight
IL-1β and VCAM mRNA in adipose tissue ([4]; day 20): significantly reduced
viability (cell count) (BJAB (GCB DLBCL)): did not show any difference
cell proliferation, compound alone vs 2Gy irradiation (U2OS cells; 30 μM): same inhibitory impact
cell proliferation, combination with 2Gy irradiation (U2OS cells; 30 μM C25-140+2Gy): boosted the effect to the region of 4Gy irradiation
viability of cancer cell lines [5]: major effect is on cancer cells of blood origin
viability of control cell lines HS-5 and MCF 10A [5]: not affected at all
